For data set [1], the system named is neutrophils. The data set can be described thus: neutrophil chemotaxis to f-Met-Leu-Phe (Neuroprobe chambers). The data set is classed as cell-based. Conditions: fluorescence at 530 nm, 1 hr; FIGURE 3. The method, then: (§1) The ability of CT-112 (SEQ. ID NO: 1) to inhibit chemotaxis of neutrophils in response to a variety of agents was assessed using Neuroprobe chemotaxis chambers. For these assays, neutrophils were resuspended in Hank's balanced salt solution with Ca^2+ and Mg^2+ to give a 5 x 10^6 cells/ml suspension after the cells were labeled with 1',7'-bis(2-carboxyethyl)-5-(6)-carboxyfluorescein. The neutrophils were exposed to CT-112 (SEQ. ID NO: 1) for approximately 15 min prior to addition to the chemotaxis chambers. CT-112 (SEQ. ID NO: 1) was present in both the top and bottom of the chambers, and the chemoattractant, either f-Met-Leu-Phe, leukotriene B4 or interleukin-8, was added to the bottom of chamber. Cells which had migrated through the membrane were determined by fluorescence at 530 nm at 1 hr after initiation of the assay.

For data set [2], the system named is neutrophils. The data set can be described thus: neutrophil chemotaxis to leukotriene B4 (Neuroprobe chambers). The data set is classed as cell-based. Conditions: fluorescence at 530 nm, 1 hr; FIGURE 4. As to the method:
as §1

The test system of data set [3] is mouse bone marrow polychromatic erythrocyte. Briefly: mouse bone marrow polychromatic erythrocyte micronucleus assay. Format: in vivo. Conditions: 62.5, 125 and 250 mg/kg; after 24, 48 or 72 hr.
In data set [4] the test system is Arachidonic Acid Induced Myeloperoxidase Activity in Mouse Ear. The data set can be described thus: myeloperoxidase activity in AA-treated mouse ear tissue (marker for PMNs). Format: in vivo, mice. Conditions: minipump. As to the method:
Myeloperoxidase activity in ear tissue was measured as a marker for the presence or absence of polymorphonuclear leukocytes (PMNs) (Barone et al., 1991, J. Neurosci. Res. 29:336-345). After measurement of ear thickness, ears were dissected from the mice and homogenized in 50mM Tris-HCL, pH 7.4 at 4°C to give a 10% (w/v) homogenate. Aliquots of the homogenate were used to determine the amount of myeloperoxidase activity present in the tissue using o-dianisidine (Sigma Chem Co., St. Louis MO) and hydrogen peroxide as substrates and monitoring chromophore generation at 460 nm (Barone et al., 1991, J. Neurosci. Res. 29:336-345).

Residues, ends and D or L forms follow the SMILES beside them.

With `CC(C)[C@H](NC(=O)[C@H](CCC(N)=O)NC(=O)[C@H](CO)NC(=O)[C@@H](NC(=O)[C@@H](N)[C@@H](C)O)[C@@H](C)O)C(=O)N[C@@H](CCCNC(=N)N)C(=O)N1CCC[C@H]1C(=O)N[C@@H](CCCNC(=N)N)C(=O)O` [CT-112, Thr-Thr-Ser-Gln-Val-Arg-Pro-Arg] (H-TTSQVRPR-OH), the “chemotactic migration of neutrophils to f-Met-Leu-Phe” value in the data set with neutrophils [1] is “effectively inhibited”. In the data set on neutrophils [2], the “chemotactic migration of neutrophils to LTB4” value is “effectively inhibited”. For the same compound, in data set [3], the micronuclei entry is on record as “did not induce a significant increase”. The “Myeloperoxidase Activity” value in data set [4] (0.05 mg/animal/day) is 19.6 ± 15.6 µmole of chromophore formed/min; in data set [4] (0.1 mg/animal/day), 17.0 ± 9.6 µmole of chromophore formed/min; in data set [4] (1.0 mg/animal/day) it was 14.7 ± 13.3 µmole of chromophore formed/min.

(Values after EP0714404B1, “ANTI-INFLAMMATORY PEPTIDES” (CURATIVE TECHNOLOGIES, INC., priority 1993, dated 1995).)
